Measured values published in PubChem BioAssay AID248 (DTP/NCI, 2004).
“And” between values parts separate entries of the source, which are not always exact repeats. Equal values may be shown once. Inconclusive results and toxic doses are left out. Rule as the data show it: active = T/C of 150% or more; inactive = T/C below 125%.

Tested on: L1210 leukemia ip in BDF1 mice, survival T/C
Experiment: NCI In Vivo Anticancer Drug Screen. Data for tumor model L1210 Leukemia (intraperitoneal) in B6D2F1 (BDF1) mice
Conditions: endpoint: mean survival time, higher = longer survival
Outline: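 Mice bearing the transplanted tumor received compound or vehicle. Survival of the treated group was divided by that of the vehicle-treated control group to give the ratio.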

[1] = dose: 100.0 mg/kg/injection, schedule: Q01DX009 (ip), vehicle: Klucel (hydroxypropylcellulose) (HPC)
[2] = dose: 200.0 mg/kg/injection, schedule: Q01DX009 (ip), vehicle: Klucel (hydroxypropylcellulose) (HPC)
[3] = dose: 400.0 mg/kg/injection, schedule: Q01DX009 (ip), vehicle: Klucel (hydroxypropylcellulose) (HPC)
[4] = dose: 50.0 mg/kg/injection, schedule: Q01DX009 (ip), vehicle: Klucel (hydroxypropylcellulose) (HPC)
[5] = dose: 100.0 mg/kg/injection, schedule: Q04DX003 (ip), vehicle: saline
[6] = dose: 200.0 mg/kg/injection, schedule: Q04DX003 (ip), vehicle: saline
[7] = dose: 100.0 mg/kg/injection, schedule: Q04DX003 (ip), vehicle: Klucel (hydroxypropylcellulose) (HPC)
[8] = dose: 200.0 mg/kg/injection, schedule: Q04DX003 (ip), vehicle: Klucel (hydroxypropylcellulose) (HPC)
[9] = dose: 400.0 mg/kg/injection, schedule: Q04DX003 (ip), vehicle: Klucel (hydroxypropylcellulose) (HPC)
[10] = dose: 12.5 mg/kg/injection, schedule: Q01DX009 (ip), vehicle: saline
[11] = dose: 25.0 mg/kg/injection, schedule: Q01DX009 (ip), vehicle: saline
[12] = dose: 25.0 mg/kg/injection, schedule: Q04DX003 (ip), vehicle: saline
[13] = dose: 50.0 mg/kg/injection, schedule: Q01DX009 (ip), vehicle: saline
[14] = dose: 50.0 mg/kg/injection, schedule: Q04DX003 (ip), vehicle: saline
[15] = dose: 100.0 mg/kg/injection, schedule: Q04DX003 (ip), vehicle: saline with Tween-80
[16] = dose: 100.0 mg/kg/injection, schedule: Q01DX001 (ip), vehicle: carboxymethylcellulose (CMC)
[17] = dose: 200.0 mg/kg/injection, schedule: Q01DX001 (ip), vehicle: carboxymethylcellulose (CMC)
[18] = dose: 400.0 mg/kg/injection, schedule: Q01DX001 (ip), vehicle: carboxymethylcellulose (CMC)
[19] = dose: 400.0 mg/kg/injection, schedule: Q04DX003 (ip), vehicle: saline
[20] = dose: 25.0 mg/kg/injection, schedule: Q01DX009 (ip), vehicle: saline with Tween-80
[21] = dose: 50.0 mg/kg/injection, schedule: Q01DX009 (ip), vehicle: saline with Tween-80
[22] = dose: 100.0 mg/kg/injection, schedule: Q01DX009 (ip), vehicle: saline with Tween-80

Measured: T/C

Cc1cc(C)c(C2=C(CC(=O)O)C(=O)c3ccccc3C2=O)c(C)c1
inactive: dose: 100.0 mg/kg/injection, schedule: Q04DX003 (ip), vehicle: gum acacia 92 % of control | dose: 200.0 mg/kg/injection, schedule: Q04DX003 (ip), vehicle: gum acacia 90 % of control | dose: 400.0 mg/kg/injection, schedule: Q04DX003 (ip), vehicle: gum acacia 90 % of control

O=C(O)c1cccc(OCCCOc2ccccc2)c1
inactive: [1] 92 % of control | [2] 90 % of control | [3] 95 % of control

Cc1ccc(NC(=O)Nc2cccc(Cl)c2)c(C)c1
inactive: [1] 86 % of control | [2] 94 % of control | [3] 87 % of control

CCN(CC)C(=O)OCCCN(C)C
inactive: [4] 96 % of control | [5] 105 % of control | [6] 105 % of control

O=C(O)CCC1C2CC(C1C(=O)O)C1C3CCC(C3)C21 (stereo not drawn)
inactive: [7] 100 % of control | [8] 95 % of control | [9] 95 % of control

CCOP(=O)(/C(C#N)=C/c1ccccc1)c1ccccc1 (stereo not drawn)
inactive: [4] 95 % of control | dose: 75.0 mg/kg/injection, schedule: Q01DX009 (ip), vehicle: Klucel (hydroxypropylcellulose) (HPC) 96 % of control | dose: 75.0 mg/kg/injection, schedule: Q04DX003 (ip), vehicle: Klucel (hydroxypropylcellulose) (HPC) 101 % of control | dose: 150.0 mg/kg/injection, schedule: Q01DX009 (ip), vehicle: Klucel (hydroxypropylcellulose) (HPC) 93 % of control | dose: 150.0 mg/kg/injection, schedule: Q04DX003 (ip), vehicle: Klucel (hydroxypropylcellulose) (HPC) 98 % of control | dose: 300.0 mg/kg/injection, schedule: Q04DX003 (ip), vehicle: Klucel (hydroxypropylcellulose) (HPC) 91 % of control

O=C(Nc1cccc2ccccc12)Oc1ccccc1Cc1ccccc1
inactive: [7] 93 % of control | [8] 93 % of control | [9] 96 % of control

CNC(C)Cc1ccc2c(c1)OCO2 (stereo not drawn)
inactive: [10] 105 % of control | [11] 98 % of control | [12] 106 % of control | [13] 100 % of control and 104 % of control | [14] 104 % of control | dose: 75.0 mg/kg/injection, schedule: Q04DX003 (ip), vehicle: saline 92 % of control | [5] 98 % of control

Nc1nc(N)c(-c2ccc(Cl)cc2)c(C(F)(F)F)n1
inactive: dose: 75.0 mg/kg/injection, schedule: Q01DX001 (ip), vehicle: saline with Tween-80 95 % of control | dose: 150.0 mg/kg/injection, schedule: Q01DX001 (ip), vehicle: saline with Tween-80 100 % of control | dose: 300.0 mg/kg/injection, schedule: Q01DX001 (ip), vehicle: saline with Tween-80 92 % of control

COc1ccc(OCC(=O)O)cc1
inactive: [15] 102 % of control | dose: 200.0 mg/kg/injection, schedule: Q04DX003 (ip), vehicle: saline with Tween-80 107 % of control | dose: 400.0 mg/kg/injection, schedule: Q04DX003 (ip), vehicle: saline with Tween-80 107 % of control

CCOC(=O)c1ccc(NC(=S)NCc2cccnc2)cc1
inactive: [1] 106 % of control | [2] 97 % of control | [3] 102 % of control

O=C(CC(C(=O)Nc1ccccc1)C(O)(c1ccccc1)c1ccccc1)Nc1ccccc1 (stereo not drawn)
inactive: [16] 95 % of control | [17] 91 % of control | [18] 95 % of control

CC(OC(=O)c1ccccc1O)c1ccccc1 (stereo not drawn)
inactive: [5] 96 % of control | [6] 96 % of control | [19] 100 % of control

C=CCSC(=S)OCC
inactive: [20] 88 % of control | [21] 104 % of control | [22] 109 % of control

CCCCCCCCCCCCCCCCCC(=O)Nc1ccc(OC(=O)NC)cc1
inactive: [1] 93 % of control | [2] 88 % of control

COc1cc(CCN2CCN(c3cc(C)ccc3Cl)CC2)cc(OC)c1OC
inactive: dose: 100.0 mg/kg/injection, schedule: Q01DX001 (ip), vehicle: other 93 % of control | dose: 200.0 mg/kg/injection, schedule: Q01DX001 (ip), vehicle: other 97 % of control | dose: 400.0 mg/kg/injection, schedule: Q01DX001 (ip), vehicle: other 97 % of control

O=C(/C=C/c1cccc(Cl)c1)c1ccc(Cl)cc1
inactive: [20] 95 % of control and 96 % of control | dose: 25.0 mg/kg/injection, schedule: Q04DX003 (ip), vehicle: carboxymethylcellulose (CMC) 95 % of control and 103 % of control | [21] 93 % of control and 95 % of control | dose: 50.0 mg/kg/injection, schedule: Q04DX003 (ip), vehicle: carboxymethylcellulose (CMC) 105 % of control and 89 % of control | [16] 94 % of control | dose: 100.0 mg/kg/injection, schedule: Q01DX009 (ip), vehicle: carboxymethylcellulose (CMC) 86 % of control | [22] 92 % of control and 91 % of control | dose: 100.0 mg/kg/injection, schedule: Q04DX002 (ip), vehicle: carboxymethylcellulose (CMC) 92 % of control and 100 % of control | [17] 92 % of control | dose: 200.0 mg/kg/injection, schedule: Q01DX009 (ip), vehicle: carboxymethylcellulose (CMC) 90 % of control | dose: 200.0 mg/kg/injection, schedule: Q04DX002 (ip), vehicle: carboxymethylcellulose (CMC) 100 % of control and 107 % of control | dose: 200.0 mg/kg/injection, schedule: Q04DX003 (ip), vehicle: carboxymethylcellulose (CMC) 96 % of control | [18] 92 % of control | dose: 400.0 mg/kg/injection, schedule: Q04DX002 (ip), vehicle: carboxymethylcellulose (CMC) 100 % of control and 102 % of control | dose: 400.0 mg/kg/injection, schedule: Q04DX003 (ip), vehicle: carboxymethylcellulose (CMC) 91 % of control

CC(C)/C=C/C1(C(C)C)C(=O)NC(=S)NC1=O
inactive: dose: 75.0 mg/kg/injection, schedule: Q01DX001 (ip), vehicle: saline 95 % of control | dose: 150.0 mg/kg/injection, schedule: Q01DX001 (ip), vehicle: saline 100 % of control | dose: 300.0 mg/kg/injection, schedule: Q01DX001 (ip), vehicle: saline 98 % of control

NCC1CCCCC1
inactive: dose: 6.25 mg/kg/injection, schedule: Q01DX009 (ip), vehicle: saline 107 % of control | dose: 12.0 mg/kg/injection, schedule: Q04DX003 (ip), vehicle: saline 98 % of control | [10] 105 % of control | [11] 100 % of control | [12] 110 % of control | [13] 88 % of control | [14] 104 % of control

CC1CNC(=O)CC(C)O1 (stereo not drawn)
inactive: [5] 108 % of control | [6] 110 % of control | [19] 104 % of control

CC1CCC(C)C1NC1=NCCO1 (stereo not drawn)
inactive: dose: 6.25 mg/kg/injection, schedule: Q01DX009 (ip), vehicle: saline with Tween-80 90 % of control | dose: 12.5 mg/kg/injection, schedule: Q01DX009 (ip), vehicle: saline with Tween-80 95 % of control | [20] 90 % of control | dose: 25.0 mg/kg/injection, schedule: Q04DX003 (ip), vehicle: saline with Tween-80 93 % of control | dose: 50.0 mg/kg/injection, schedule: Q04DX003 (ip), vehicle: saline with Tween-80 93 % of control | [15] 87 % of control
